Source: PubChem BioAssay (NCI)
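Compound exposure: 48 hours, 5 concentrations, 96-well plates. GI50 is the concentration that inhibits growth by half. TGI is the concentration that stops growth completely.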

Columns and labels:
Assay in all cases: NCI tumour cell line growth inhibition, 48 h
HCT-15 colon = tested on: HCT-15 colon
NCI-H522 lung = tested on: NCI-H522 lung
SW-620 colon = tested on: SW-620 colon
MDA-MB-435 = tested on: MDA-MB-435
SR leukemia = tested on: SR leukemia
SK-MEL-28 melanoma = tested on: SK-MEL-28 melanoma
EKVX NSCLC = tested on: EKVX NSCLC
OVCAR-5 ovarian = tested on: OVCAR-5 ovarian
IGROV1 ovarian = tested on: IGROV1 ovarian
RXF 393 renal = tested on: RXF 393 renal
SNB-19 CNS = tested on: SNB-19 CNS
MCF7 breast = tested on: MCF7 breast
PC-3 prostate = tested on: PC-3 prostate
SF-268 CNS = tested on: SF-268 CNS
COLO 205 colon = tested on: COLO 205 colon
A549 NSCLC = tested on: A549 NSCLC
NCI-H23 lung = tested on: NCI-H23 lung
RPMI-8226 leukemia = tested on: RPMI-8226 leukemia
UACC-62 melanoma = tested on: UACC-62 melanoma
SK-MEL-5 melanoma = tested on: SK-MEL-5 melanoma
T-47D breast = tested on: T-47D breast
HOP-62 NSCLC = tested on: HOP-62 NSCLC
K-562 leukemia = tested on: K-562 leukemia
OVCAR-3 ovarian = tested on: OVCAR-3 ovarian
CCRF-CEM leukemia = tested on: CCRF-CEM leukemia
NCI-H226 lung = tested on: NCI-H226 lung
HS 578T breast = tested on: HS 578T breast
SK-MEL-2 melanoma = tested on: SK-MEL-2 melanoma
SN12C renal = tested on: SN12C renal
A498 renal = tested on: A498 renal
MOLT-4 leukemia = tested on: MOLT-4 leukemia
UACC-257 melanoma = tested on: UACC-257 melanoma
ACHN renal = tested on: ACHN renal
SK-OV-3 ovarian = tested on: SK-OV-3 ovarian
HCC-2998 colon = tested on: HCC-2998 colon
UO-31 renal = tested on: UO-31 renal
HCT-116 colon = tested on: HCT-116 colon
NCI/ADR-RES ovarian = tested on: NCI/ADR-RES ovarian
KM12 colon = tested on: KM12 colon
HOP-92 NSCLC = tested on: HOP-92 NSCLC
HL-60(TB) leukemia = tested on: HL-60(TB) leukemia
786-0 renal = tested on: 786-0 renal
BT-549 breast = tested on: BT-549 breast
OVCAR-4 ovarian = tested on: OVCAR-4 ovarian
NCI-H460 lung = tested on: NCI-H460 lung
TK-10 renal = tested on: TK-10 renal
SF-295 CNS = tested on: SF-295 CNS
SNB-75 CNS = tested on: SNB-75 CNS
SF-539 CNS = tested on: SF-539 CNS
MALME-3M melanoma = tested on: MALME-3M melanoma
MDA-MB-231 breast = tested on: MDA-MB-231 breast
OVCAR-8 ovarian = tested on: OVCAR-8 ovarian
U251 CNS = tested on: U251 CNS
M14 melanoma = tested on: M14 melanoma
HT29 colon = tested on: HT29 colon
CAKI-1 renal = tested on: CAKI-1 renal
LOX IMVI melanoma = tested on: LOX IMVI melanoma
DU-145 prostate = tested on: DU-145 prostate

COc1c(Nc2ncc(Cl)c(N[C@@H]3[C@H]4C=CC(C4)[C@@H]3C(N)=O)n2)ccc2c1CC[C@@H](N1CCOCC1)CC2
GI50 (HCT-15 colon): 3.28 µM
TGI (HCT-15 colon): 15.3 µM
GI50 (NCI-H522 lung): 5.47 µM
TGI (NCI-H522 lung): 15 µM
GI50 (SW-620 colon): 2.51 µM
TGI (SW-620 colon): 10.2 µM
GI50 (MDA-MB-435): 2.72 µM
TGI (MDA-MB-435): 15.7 µM
GI50 (SR leukemia): 0.43 µM
TGI (SR leukemia): 5.64 µM
GI50 (SK-MEL-28 melanoma): 3.25 µM
TGI (SK-MEL-28 melanoma): 17.7 µM
GI50 (EKVX NSCLC): 1.3 µM
TGI (EKVX NSCLC): 10.2 µM
GI50 (OVCAR-5 ovarian): 1.4 µM
TGI (OVCAR-5 ovarian): 17.8 µM
GI50 (IGROV1 ovarian): 5.3 µM
TGI (IGROV1 ovarian): 35.8 µM
GI50 (RXF 393 renal): 1.64 µM
TGI (RXF 393 renal): 6.54 µM
GI50 (SNB-19 CNS): 9.37 µM
TGI (SNB-19 CNS): 29.5 µM
GI50 (MCF7 breast): 2.01 µM
TGI (MCF7 breast): 17.1 µM
GI50 (PC-3 prostate): 3.94 µM
TGI (PC-3 prostate): 23.7 µM
GI50 (SF-268 CNS): 4.71 µM
TGI (SF-268 CNS): 20.8 µM
GI50 (COLO 205 colon): 1.74 µM
TGI (COLO 205 colon): 5.5 µM
GI50 (A549 NSCLC): 4.02 µM
TGI (A549 NSCLC): 17.5 µM
GI50 (NCI-H23 lung): 6.02 µM
TGI (NCI-H23 lung): 24.7 µM
GI50 (RPMI-8226 leukemia): 4.28 µM
TGI (RPMI-8226 leukemia): 28.5 µM
GI50 (UACC-62 melanoma): 2.81 µM
TGI (UACC-62 melanoma): 18.8 µM
GI50 (SK-MEL-5 melanoma): 5.81 µM
TGI (SK-MEL-5 melanoma): 19.2 µM
GI50 (T-47D breast): 7.78 µM
TGI (T-47D breast): 25.5 µM
GI50 (HOP-62 NSCLC): 2.08 µM
TGI (HOP-62 NSCLC): 15 µM
GI50 (K-562 leukemia): 5.52 µM
TGI (K-562 leukemia): 59.7 µM
GI50 (OVCAR-3 ovarian): 7.06 µM
TGI (OVCAR-3 ovarian): 24.5 µM
GI50 (CCRF-CEM leukemia): 5.25 µM
TGI (CCRF-CEM leukemia): 39.2 µM
GI50 (NCI-H226 lung): 3.81 µM
TGI (NCI-H226 lung): 30.2 µM
GI50 (HS 578T breast): 1.88 µM
TGI (HS 578T breast): 9 µM
GI50 (SK-MEL-2 melanoma): 3.39 µM
TGI (SK-MEL-2 melanoma): 11.9 µM
GI50 (SN12C renal): 3.87 µM
TGI (SN12C renal): 29.2 µM
GI50 (A498 renal): 1.39 µM
TGI (A498 renal): 4.79 µM
GI50 (MOLT-4 leukemia): 4.05 µM
TGI (MOLT-4 leukemia): 35.5 µM
GI50 (UACC-257 melanoma): 4.81 µM
TGI (UACC-257 melanoma): 19.8 µM
GI50 (ACHN renal): 2.66 µM
TGI (ACHN renal): 24.3 µM
GI50 (SK-OV-3 ovarian): 3.43 µM
TGI (SK-OV-3 ovarian): 15.2 µM
GI50 (HCC-2998 colon): 9.61 µM
TGI (HCC-2998 colon): 23.6 µM
GI50 (UO-31 renal): 2.07 µM
TGI (UO-31 renal): 10.7 µM
GI50 (HCT-116 colon): 2.52 µM
TGI (HCT-116 colon): 10.3 µM
GI50 (NCI/ADR-RES ovarian): 4.58 µM
TGI (NCI/ADR-RES ovarian): 24.4 µM
GI50 (KM12 colon): 4.93 µM
TGI (KM12 colon): 25.2 µM
GI50 (HOP-92 NSCLC): 1.05 µM
TGI (HOP-92 NSCLC): 6.77 µM
GI50 (HL-60(TB) leukemia): 4.86 µM
TGI (HL-60(TB) leukemia): 20.6 µM
GI50 (786-0 renal): 1.97 µM
TGI (786-0 renal): 12.2 µM
GI50 (BT-549 breast): 3.66 µM
TGI (BT-549 breast): 14.8 µM
GI50 (OVCAR-4 ovarian): 3.68 µM
TGI (OVCAR-4 ovarian): 23 µM
GI50 (NCI-H460 lung): 4.19 µM
TGI (NCI-H460 lung): 18.2 µM
GI50 (TK-10 renal): 1.7 µM
TGI (TK-10 renal): 15.9 µM
GI50 (SF-295 CNS): 4.47 µM
TGI (SF-295 CNS): 17.8 µM
GI50 (SNB-75 CNS): 1.59 µM
TGI (SNB-75 CNS): 5.89 µM
GI50 (SF-539 CNS): 2.3 µM
TGI (SF-539 CNS): 8.01 µM
GI50 (MALME-3M melanoma): 1.7 µM
TGI (MALME-3M melanoma): 14.6 µM
GI50 (MDA-MB-231 breast): 2.24 µM
TGI (MDA-MB-231 breast): 9.36 µM
GI50 (OVCAR-8 ovarian): 6.59 µM
TGI (OVCAR-8 ovarian): 29.6 µM
GI50 (U251 CNS): 3.2 µM
TGI (U251 CNS): 15.7 µM
GI50 (M14 melanoma): 2.14 µM
TGI (M14 melanoma): 12.7 µM
GI50 (HT29 colon): 2.68 µM
TGI (HT29 colon): 10.6 µM
GI50 (CAKI-1 renal): 3.08 µM
TGI (CAKI-1 renal): 14.2 µM
GI50 (LOX IMVI melanoma): 2.11 µM
TGI (LOX IMVI melanoma): 6.23 µM
GI50 (DU-145 prostate): 4.88 µM
TGI (DU-145 prostate): 27.2 µM
